Laboratory results published in patent publication US20110269763A1, “CRTH2 receptor ligands for medicinal uses” (7TM Pharma A/S, priority 2004, published 2011).

Assays:
[1] = biological target: T1, human CRTH2 (Homo sapiens, UniProt Q9Y5Y4, V204A); assay: Functional antagonist BRET assay on HEK293 cells stably expressing human CRTH2-Rluc and GFP2-β-arr2; type: cell-based; design: expressed in transfected cells; conditions: read-out: Antag. IC50
T1 sequence (Q9Y5Y4 1-395 V204A): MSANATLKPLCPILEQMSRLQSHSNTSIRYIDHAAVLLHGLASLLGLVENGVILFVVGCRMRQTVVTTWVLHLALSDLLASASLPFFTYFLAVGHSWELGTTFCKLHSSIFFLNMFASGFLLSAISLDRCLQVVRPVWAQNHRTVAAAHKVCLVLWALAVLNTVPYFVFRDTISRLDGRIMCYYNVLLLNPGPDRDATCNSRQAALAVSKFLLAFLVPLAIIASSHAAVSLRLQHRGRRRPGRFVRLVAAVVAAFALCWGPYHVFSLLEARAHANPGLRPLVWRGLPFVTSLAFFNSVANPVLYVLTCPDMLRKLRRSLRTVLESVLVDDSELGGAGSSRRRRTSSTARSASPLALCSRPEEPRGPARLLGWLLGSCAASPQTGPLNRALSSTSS
Method in brief: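 Cells (2×10^6/mL in D-PBS with glucose) were preincubated 15 min with antagonist at 1% DMSO, then agonist and DeepBlueC were co-injected. Emission at 400 and 515 nm was read 5 s later, and the mBRET ratio (515/400 nm) was used to derive IC50 from concentration–response curves.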

[2] = biological target: T1, human CRTH2; assay: Receptor binding assay: [3H]PGD2 competition binding on whole COS-7 cells transiently transfected with CRTH2 (also stable HEK293 cells); design: expressed in transfected cells; host or cells: COS-7 (transient, calcium phosphate)
Method in brief: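 Whole COS-7 cells transiently transfected with human CRTH2 (calcium phosphate), or stable HEK293 cells, competed against 0.1 nM [3H]PGD2 in HBSS/10 mM HEPES with 1% DMSO, 3 h at 4 °C. Nonspecific binding with 10 μM PGD2; scintillation counting, duplicates. IC50 from curve fitting.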

[3] = BRET, antagonist incubated 15 minutes prior to agonist
[4] = competition with 0.1 nM [3H]PGD2, whole cells, 3 h at 4° C.
[5] = functional antagonist assay, Table 3
[6] = receptor binding assay, Table 3

Structure (SMILES)	IC50 [1, 3]	IC50 [2, 4]	IC50 [1, 5]	IC50 [2, 6]
CCc1ccc(OCC(=O)O)c(C(=O)c2cnn(-c3c(Cl)cccc3Cl)c2)c1 [D53, {2-[1-(2,6-Dichlorophenyl)-1H-pyrazole-4-carbonyl]-4-ethylphenoxy}acetic acid]	< 500 nM	< 500 nM	–	–
O=C(O)COc1ccc(Br)cc1-c1nc(-c2ccccn2)no1 [D133, [4-Bromo-2-(3-pyridin-[1,2,4]oxadiazol-5-yl)phenoxy]acetic acid]	> 5000 nM	< 500 nM	–	–
O=C(O)COc1ccc(Br)cc1-c1nc(Cc2cc(F)cc(F)c2)no1 [D117, {4-Bromo-2-[3-(3,5-difluoro-benzyl)-[1,2,4]oxadiazol-5-yl]-phenoxy}-acetic acid]	–	–	< 500 nM	< 500 nM
O=C(O)COc1ccccc1C=NNC(=O)COc1ccc(Cl)cc1Cl [D149]	< 500 nM	< 500 nM	–	–
O=C(O)COc1ccc(Br)cc1C(=O)c1cnn(-c2ccc(Br)cc2Cl)c1 [D34, 4-Bromo-2-[1-(4-bromo-2-chlorophenyl)-1H-pyrazole-4-carbonyl]phenoxyacetic acid]	< 500 nM	< 500 nM	–	–
COc1cccc(-c2noc(-c3cc(Br)ccc3OCC(=O)O)n2)c1 [D104, {4-Bromo-2-[3-(3-methoxyphenyl)-[1,2,4]oxadiazol-5-yl]phenoxy}acetic acid]	–	–	< 500 nM	< 500 nM
CC(C)c1ccc(OCC(=O)O)c(C(=O)c2cnn(-c3ccccc3Cl)c2)c1 [D31, 2-[1-(2-Chlorophenyl)-1H-pyrazole-4-carbonyl]-4-isopropylphenoxyacetic acid]	< 500 nM	< 500 nM	–	–
O=C(O)COc1ccc(Br)cc1-c1coc(Cc2ccccc2)n1 [D88, [2-(2-Benzyloxazol-4-yl)-4-bromophenoxy]acetic acid]	< 500 nM	< 500 nM	–	–
O=C(O)COc1ccc(Br)cc1-c1nc(-c2ccc(OC(F)(F)F)cc2)no1 [D103, {4-Bromo-2-[3-(4-trifluoromethoxyphenyl)-[1,2,4]oxadiazol-5-yl]phenoxy}acetic acid]	–	–	< 500 nM	< 500 nM
O=C(O)COc1ccc(-c2ccccc2)cc1C(=O)c1cnn(-c2ccccc2)c1 [D5, 3-(1-Phenyl-1H-pyrazole-4-carbonyl)biphenyl-4-yloxyacetic acid]	< 500 nM	< 500 nM	–	–
O=C(O)COc1ccc(Br)cc1CC1SC(=O)N(CC(=O)c2ccc(Cl)cc2)C1=O (stereo not shown) [D143, 4-Bromo-2-{3-[2-(4-chlorophenyl)-2-oxoethyl]-2,4-dioxothiazolidin-5-ylmethyl}phenoxyacetic acid]	< 500 nM	< 500 nM	–	–
O=C(O)COc1ccc(Br)cc1C(=O)c1cnn(-c2cccc(Br)c2)c1 [D24, 4-Bromo-2-[1-(3-bromophenyl)-1H-pyrazole-4-carbonyl]phenoxyacetic acid]	< 500 nM	< 500 nM	–	–
O=C(O)COc1ccc(Br)cc1-c1nc(-c2c(Cl)cccc2Cl)no1 [D110, {4-Bromo-2-[3-(2,6-dichlorophenyl)-[1,2,4]oxadiazol-5-yl]phenoxy}acetic acid]	–	–	< 500 nM	< 500 nM
O=C(O)COc1ccc(Br)cc1-c1nc(Cc2ccccc2C(F)(F)F)no1 [D127, {4-Bromo-2-[3-(2-trifluoromethylbenzyl)-[1,2,4]oxadiazol-5-yl]phenoxy}-acetic acid]	–	–	< 500 nM	< 500 nM
O=C(O)COc1ccc(Br)cc1-c1nc(-c2ccc(C(F)(F)F)cc2)no1 [D106, {4-Bromo-2-[3-(4-trifluoromethyl-phenyl)-[1,2,4]oxadiazol-5-yl]phenoxy}-acetic acid]	–	–	< 500 nM	< 500 nM
COc1ccccc1-c1noc(-c2cc(Br)ccc2OCC(=O)O)n1 [D107, {4-Bromo-2-[3-(2-methoxyphenyl)-[1,2,4]oxadiazol-5-yl]phenoxy}acetic acid]	–	–	< 500 nM	< 500 nM
Cc1ccc(-n2cc(C(=O)c3cc(Br)ccc3OCC(=O)O)cn2)c(C)c1 [D54, {4-Bromo-2-[1-(2,4-dimethylphenyl)-1H-pyrazole-4-carbonyl]phenoxy}acetic acid]	< 500 nM	< 500 nM	–	–
O=C(O)COc1ccc(Br)cc1C(=O)c1cnn(-c2ccc(Cl)cc2Cl)c1 [D26, 4-Bromo-2-[1-(2,4-dichlorophenyl)-1H-pyrazole-4-carbonyl]phenoxyacetic acid]	< 500 nM	< 500 nM	–	–
CC(=O)Nc1ccc(Cc2noc(-c3cc(Br)ccc3OCC(=O)O)n2)cc1 [D131, {2-[3-(4-Acetylaminobenzyl)-[1,2,4]oxadiazol-5-yl]-4-bromophenoxy}acetic acid]	–	–	< 500 nM	< 500 nM

Structure (SMILES)	IC50 [1, 3]	IC50 [2, 4]	IC50 [1, 5]	IC50 [2, 6]
O=C(O)COc1ccccc1C=NNC(=O)c1ccc2ccccc2c1O [D154]	< 500 nM	< 500 nM	–	–
O=C(O)COc1ccc(Br)cc1C=NNc1ccccn1 [D151]	> 5000 nM	< 500 nM	–	–
O=C(O)COc1ccc(Br)cc1-c1coc(Cc2c(Cl)cccc2Cl)n1 [D91, {4-Bromo-2-[2-(2,6-dichlorobenzyl)oxazol-4-yl]phenoxy}acetic acid]	< 500 nM	< 500 nM	–	–
O=C(O)COc1ccc(F)cc1C(=O)c1cnn(-c2ccccc2)c1 [D3, 4-Fluoro-2-(1-phenyl-1H-pyrazole-4-carbonyl)phenoxyacetic acid]	500 to 5000 nM	< 500 nM	–	–
Cc1ccc(-n2cc(C(=O)c3cc(Br)ccc3OCC(=O)O)cn2)c(Br)c1 [D45, {4-Bromo-2-[1-(2-bromo-4-methylphenyl)-1H-pyrazole-4-carbonyl]phenoxy}acetic acid]	< 500 nM	< 500 nM	–	–
CCc1cccc(CC)c1-n1cc(C(=O)c2cc(Br)ccc2OC(C)C(=O)O)cn1 (stereo not shown) [D78, 2-{4-Bromo-2-[1-(2,6-diethylphenyl)-1H-pyrazole-4-carbonyl]phenoxy}propionic acid]	< 500 nM	< 500 nM	–	–
O=C(O)COc1ccc(Br)cc1C(=O)c1cnc(-c2ccccc2)s1 [D95, [4-Bromo-2-(2-phenylthiazole-5-carbonyl)phenoxy]acetic acid]	< 500 nM	< 500 nM	–	–
Cc1cc(Cl)ccc1-n1cc(C(=O)c2cc(Br)ccc2OCC(=O)O)cn1 [D58, {4-Bromo-2-[1-(4-chloro-2-methylphenyl)-1H-pyrazole-4-carbonyl]phenoxy}acetic acid]	< 500 nM	< 500 nM	–	–
CC(Oc1ccc(Br)cc1C(=O)c1cnn(-c2ccc(Cl)c(Cl)c2)c1)C(=O)O (stereo not shown) [D64, 2-{4-Bromo-2-[1-(3,4-dichloro-phenyl)-1H-pyrazole-4-carbonyl]phenoxy}propionic acid]	< 500 nM	< 500 nM	–	–
O=C(O)COc1ccc(Br)cc1-c1nc(-c2ccccc2)no1 [D99, [4-Bromo-2-(3-phenyl-[1,2,4]oxadiazol-5-yl)phenoxy]acetic acid]	–	–	< 500 nM	< 500 nM
O=C(O)COc1ccc(Br)cc1-c1nc(C2(c3ccccc3)CC2)no1 [D132, {4-Bromo-2-[3-(1-phenylcyclopropyl)-[1,2,4]oxadiazol-5-yl]phenoxy}acetic acid]	< 500 nM	< 500 nM	–	–
COc1ccc(-c2nc(-c3cc(Br)ccc3OCC(=O)O)co2)cc1 [D84, {4-Bromo-2-[2-(4-methoxyphenyl)oxazol-4-yl]phenoxy}acetic acid]	500 to 5000 nM	< 500 nM	–	–
O=C(O)COc1ccc(Br)cc1-c1noc(-c2ccccc2)n1 [D138, [4-Bromo-2-(5-phenyl-[1,2,4]oxadiazol-3-yl)phenoxy]acetic acid]	> 5000 nM	< 500 nM	–	–
CC(Oc1ccc(Br)cc1C(=O)c1cnn(-c2ccc(Br)cc2Br)c1)C(=O)O (stereo not shown) [D69, 2-{4-Bromo-2-[1-(2,4-dibromophenyl)-1H-pyrazole-4-carbonyl]phenoxy}propionic acid]	< 500 nM	< 500 nM	–	–
O=C(O)COc1ccc(Br)cc1-c1nc(-c2cccc(Cl)c2)no1 [D105, {4-Bromo-2-[3-(3-chlorophenyl)-[1,2,4]oxadiazol-5-yl]phenoxy}acetic acid]	–	–	< 500 nM	< 500 nM
O=C(O)COc1ccc(Br)cc1C(=O)c1cnn(-c2ccccn2)c1 [D6, 4-Bromo-2-(1-pyridin-2-yl-1H-pyrazole-4-carbonyl)phenoxyacetic acid]	< 500 nM	< 500 nM	–	–
Cc1cccc(C)c1-n1cc(C(=O)c2cc(Br)ccc2OC(C)C(=O)O)cn1 (stereo not shown) [D77, 2-{4-Bromo-2-[1-(2,6-dimethylphenyl)-1H-pyrazole-4-carbonyl]phenoxy}propionic acid]	< 500 nM	< 500 nM	–	–
O=C(O)COc1ccc(Br)cc1-c1nc(Cc2ccccc2Cl)no1 [D120, {4-Bromo-2-[3-(2-chloro-benzyl)-[1,2,4]oxadiazol-5-yl]-phenoxy}-acetic acid]	–	–	< 500 nM	< 500 nM
O=C(O)COc1ccc(Br)cc1-c1nc(Cc2ccc(Cl)cc2Cl)no1 [D122, {4-Bromo-2-[3-(2,4-dichloro-benzyl)-[1,2,4]oxadiazol-5-yl]-phenoxy}-acetic acid]	–	–	< 500 nM	< 500 nM
